Patent US12220410B2, “Antitumor composition” (priority 2019, dated 2025)
Like-named read-outs stand apart in the source and are kept apart here.

Legend:
[1] = test system: human follicular lymphoma cell line DOHH-2; assay: In vitro cell growth inhibition test (CellTiter-Fluor), DOHH-2; assay type: cell-based; conditions: DOHH-2
[2] = test system: human diffuse large B-cell lymphoma (DLBCL) cell line OCI-Ly7; assay: In vitro cell growth inhibition test, OCI-Ly7 (cell viability, combination index); assay type: cell-based; conditions: bendamustine 0 nM
[3] = test system: human diffuse large B-cell lymphoma cell line OCI-Ly7; assay type: in vivo; conditions: for Tumor growth delay / Tumor growth delay rate: relative tumor volume 1600%
[4] = test system: human breast cancer cell line MDA-MB-453; assay: In vivo antitumor effect test, MDA-MB-453 tumor, compound A and lapatinib (Example 37); design: species or system NOD-SCID mice; conditions: for Tumor growth delay / Tumor growth delay rate: relative tumor volume 200%
Method: The tumor volume was calculated from tumor diameters by the following formula: (Long diameter×[Short diameter]^2×0.5). Using the calculated tumor volume value, the relative tumor volume (ratio of the tumor volume on the day of measurement to the baseline tumor volume on Day 1) was calculated. […] Further, the tumor growth delay rate (% TGD) was calculated according to the following formula: % TGD={(T−C)/C}×100, Where: • T: […] relative tumor volume of the control group to reach 1600% 6) Statistical Analysis
Compound A was suspended in a 1% hypromellose solution to prepare 20 mg/mL test substance suspensions (a suspension for preparing a single administration solution and a suspension for preparing a 100 mg/kg combined administration solution). The 20 mg/mL test substance suspensions were diluted with a 1% hypromellose solution to prepare 10 mg/mL (100 mg/kg administration solution), 6 mg/mL (suspension for preparing a 30 mg/kg combined administration solution), and 3 mg/mL (30 mg/kg administration solution) test substance suspensions. Lapatinib was suspended in a 1% hypromellose solution to prepare a 20 mg/mL suspension for preparing a 100 mg/kg lapatinib combined administration solution. The 20 mg/mL suspension was diluted with a 1% hypromellose solution to prepare a 10 mg/mL suspension for 100 mg/kg single administration. The administration solution of the combination group was prepared by mixing the 6 mg/mL compound A suspension and the 20 mg/mL lapatinib suspension at 1:1, or mixing the 20 mg/mL compound A suspension and the 20 mg/mL lapatinib suspension at 1:1.
MDA-MB-453 was obtained from ATCC. […] The collected cells were suspended in serum-free RPMI 1640 medium at 1.0×10^8 cells/mL.
5-week-old female NOD-SCID mice (NOD.CB17-Prkdcscid/J, produced by Charles River Japan Co., Ltd.) were used. The female NOD-SCID mice were bred in the same manner as in Example 36. The cell suspension was inoculated at 2×10^7 cells/body into the subcutaneous space of the right axillary region of the 6-week-old NOD-SCID mice, and the mice were grouped in the same manner as in Example 36 using the tumor volume as an index.
The administration was started on the next day of the grouping (Day 2), and compound A and lapatinib were orally administered once a day for 28 consecutive days. Each group (N=8) was treated as follows. • (1) Control (solvent control) group: 1% hypromellose solution • (2) Compound A (30 mg/kg) treated group: 30 mg/kg of compound A (oral administration once a day for 28 consecutive days) • (3) Compound A (100 mg/kg) treated group: 100 mg/kg of compound A (oral administration once a day for 28 consecutive days) • (4) Lapatinib (100 mg/kg) treated group: 100 mg/kg of lapatinib (oral administration once a day for 28 consecutive days) • (5) Combination group 1: 30 mg/kg of compound A (oral administration once a day for 28 consecutive days)+100 mg/kg of lapatinib (oral administration once a day for 28 consecutive days) • (6) Combination group 2: 100 mg/kg of compound A (oral administration once a day for 28 consecutive days)+100 mg/kg of lapatinib (oral administration once a day for 28 consecutive days)

[5] = test system: human diffuse large B-cell lymphoma cell line OCI-Ly7; assay type: in vivo
[6] = test system: human diffuse large B-cell lymphoma cell line OCI-Ly7; assay type: in vivo; remark: listed apart in the source
[7] = test system: human acute myelogenous leukemia (AML) cell line KG-1; assay type: in vivo
[8] = test system: human acute myelogenous leukemia (AML) cell line KG-1; assay type: in vivo; remark: listed apart in the source
[9] = test system: human diffuse large B-cell lymphoma cell line OCI-Ly7; design: species or system SCID mice; conditions: mouse, in vivo
[10] = test system: human acute myelogenous leukemia (AML) cell line KG-1; assay type: in vivo; remark: listed apart in the source
[11] = compound A 10 mg/kg orally once a day for 14 days
[12] = compound A 30 mg/kg orally once a day for 14 days
[13] = compound A 100 mg/kg orally once a day for 14 days
[14] = compound A 30 mg/kg orally once a day for 28 days
[15] = compound A 100 mg/kg orally once a day for 28 days
[16] = compound A 30 mg/kg orally once a day for 21 days, relative tumor volume 600%

## CNc1ccc(Oc2ccc(NC(=O)c3ccc(C(F)(F)F)cc3)cn2)c(C)c1.Cl [Compound A, N-{6-[2-methyl-4-(methylamino)phenoxy]pyridin-3-yl}-4-(trifluoromethyl)benzamide hydrochloride]
[1]; bendamustine fixed at 0 nM, compound A at its IC50
  FIC (fractional inhibitory concentration): 1
[1]; bendamustine fixed at 1250 nM, compound A at its IC50
  FIC (fractional inhibitory concentration): 0.595
[1]; bendamustine fixed at 2500 nM, compound A at its IC50
  FIC (fractional inhibitory concentration): 0.258
[1]; bendamustine fixed at 5000 nM, compound A at its IC50
  FIC (fractional inhibitory concentration): 0.123
[1]; compound A fixed at 0 nM, bendamustine at its IC50
  FIC (fractional inhibitory concentration): 0
[1]; compound A fixed at 39.1 nM, bendamustine at its IC50
  FIC (fractional inhibitory concentration): 0.103
[1]; compound A fixed at 78.1 nM, bendamustine at its IC50
  FIC (fractional inhibitory concentration): 0.205
[1]; compound A fixed at 156.3 nM, bendamustine at its IC50
  FIC (fractional inhibitory concentration): 0.410
[1]; compound A fixed at 312.5 nM, bendamustine at its IC50
  FIC (fractional inhibitory concentration): 0.820
[2]; compound A 0.25 nM, OCI-Ly7, 8000 cells/well
  Cell viability (ratio relative to the drug-free control): 0.79
[2]; compound A 0.5 nM, OCI-Ly7
  Cell viability (ratio relative to the drug-free control): 0.76
[2]; compound A 1 nM, OCI-Ly7
  Cell viability (ratio relative to the drug-free control): 0.61
[2]; compound A 2 nM, OCI-Ly7
  Cell viability (ratio relative to the drug-free control): 0.50
[3]; 30 or 100 mg/kg of compound A, 50 mg/kg of cyclophosphamide
  effectiveness of monotherapy (tumor growth delay): effective
[3]; [11]
  Median Time (time for relative tumor volume to reach 1600%): 13.2 days
  Tumor growth delay: 0.5 days
  Tumor growth delay rate: 3.5%
[3]; [12]
  Median Time (time for relative tumor volume to reach 1600%): 23.0 days
  Tumor growth delay: 10.3 days
[3]; [13]
  Median Time (time for relative tumor volume to reach 1600%): 31.5 days
  Tumor growth delay: 18.8 days
  Tumor growth delay rate: 147.6%
[4]; 30 or 100 mg/kg of compound A, 100 mg/kg of lapatinib
  effectiveness of monotherapy (tumor growth delay): effective
[4]; [14]
  Median Time (time for relative tumor volume to reach 200%): 39.3 days
  Tumor growth delay: 16.5 days
  Tumor growth delay rate: 72.4%
[4]; [15]
  Median Time (time for relative tumor volume to reach 200%): >99.0 days
  Tumor growth delay: >76.2 days
[4]; compound A 100 mg/kg orally once a day for 28 days, hydrochloride, 100 mg/kg
  Tumor growth delay rate: >334.2%
[4]; compound A 100 mg/kg orally once a day for 28 days, listed as compound A, hydrochloride, 100 mg/kg
  Tumor growth delay rate: > 334.2%
[5]; 30 mg/kg of compound A, 15 mg/kg of bendamustine
  effectiveness of monotherapy (tumor growth delay): effective
[5]; [12]
  Median Time (time for relative tumor volume to reach 1600%): 23.9 days
[5]; compound A 30 mg/kg orally once a day for 14 days, relative tumor volume 1600%
  Tumor growth delay: 8.4 days
[6]; 30 mg/kg of compound A, 10 mg/kg of rituximab
  effectiveness of monotherapy (tumor growth delay): effective
[6]; compound A 30 mg/kg orally once a day for 21 days
  Median Time (time for relative tumor volume to reach 600%): 28.4 days
[6]; [16]
  Tumor growth delay: 12.1 days
  Tumor growth delay rate: 73.9%
[7]; compound A 30 mg/kg, decitabine 1 mg/kg
  antitumor effect on KG-1 tumor (monotherapy): antitumor effect
[7]; compound A monotherapy 30 mg/kg orally, daily, 21 days, Day 23
  T/C (ratio of relative tumor volume of treated group to control group): 45.2%
[8]; compound A 30 mg/kg, cytarabine 50 mg/kg
  antitumor effect on KG-1 tumor (monotherapy): antitumor effect
[8]; compound A monotherapy 30 mg/kg orally, daily, 14 days, Day 16
  T/C (ratio of relative tumor volume of treated group to control group): 52.0%
[9]
  effectiveness (tumor growth delay): effective
[9]; po, 30 mg/kg
  Median Time (time for relative tumor volume to reach 800%): 18.2 days
  Tumor growth delay: 8.3 days
  Tumor growth delay rate: 83.8%
[10]; compound A 50 mg/kg, venetoclax 50 mg/kg + decitabine 1 mg/kg
  antitumor effect on KG-1 tumor: antitumor effect
[10]; compound A single administration 50 mg/kg orally, daily, 14 days, Day 16
  T/C (ratio of relative tumor volume of treated group to control group): 29.2%
